Measurements as given in patent publication EP0247723A2, “Compositions and methods for treating allergic conjuctivitis” (MERCK FROSST CANADA INC., priority 1986, dated 1987).
Marks after values point to notes of the source that are not given here.

Test system: ANTIGEN-INDUCED VASCULAR PERMEABILITY CHANGES IN GUINEA-PIG CONJUNCTIVA
Test: Inhibition of antigen-induced ocular inflammation (vascular permeability, extravasation of [99mTc]-human serum albumin into the conjunctiva)
Format: in vivo
Conditions: ovalbumin-sensitized guinea-pigs
Procedure: Guinea-pigs were actively sensitized to produce IgG1 and IgE antibodies to ovalbumin (2 weeks). Animals were then challenged topically in the eyes (10 µl of 2.5% w/v ovalbumin per eye) followed by intravenous administration of [^99mTc]-human serum albumin (0.25 mCi). Animals were then challenged with antigen either once or twice (2nd challenge 24 hours later). The response was a marked increase in vascular permeability as measured by extravasation of [^99mTc]-labelled human serum albumin into the conjunctiva.
To measure the inhibitory effect of Compounds I-IV, at varying times before antigen challenge, Compounds I-IV were administered either i.v. (1 mg/kg dosage) or topically (0.1% suspensions or_ solutions in 10 µl of 0.5% hydroxy ethylcellulose).

[1] = second challenge (24 hours later), topical 0.1% in 10 µl of 0.5% hydroxy ethylcellulose, pre-treat. time 5 min
[2] = single challenge, topical 0.1% in 10 µl of 0.5% hydroxy ethylcellulose, pre-treat. time 5 min

| SMILES | % Inhib. [1] | % Inhib. [2] | % Inhib. (second challenge (24 hours later), i.v. 1 mg/kg, pre-treat. time 2 min) | % Inhib. (single challenge, i.v. 1 mg/kg, pre-treat. time 2 min) | % Inhib. (second challenge (24 hours later), topical 0.1% in 10 µl of 0.5% hydroxy ethylcellulose, pre-treat. time 60 min) |
| --- | --- | --- | --- | --- | --- |
| CCCc1c(OCCCSc2ccc([C@H](O)[C@@H](C)CC(=O)O)cc2)ccc(C(C)=O)c1O (relative stereo) [II, (BS^*,YR^*)-4-(3-(4-acetyl-3-hydroxy-2-propyl-phenoxy)propylthio)-Y-hydroxy-B-methylbenzene-butanoic acid] | 30.3* % | 0% |  |  |  |
| CCCc1c(OCCCS(=O)(=O)c2ccc(C(=O)CCC(=O)O)cc2)ccc(C(C)=O)c1O [Compound I, 4-((3-(4-acetyl-3-hydroxy-2-propylphenoxy)-propyl)sulfonyl)-Y-oxobenzene butanoic acid] | 37.0** % | 1.7% | 42.2** % | 1.5% |  |
| COc1ccc2nc3cc(OC)c(=O)c(Br)c-3sc2c1 [III, 4-bromo-2,7-dimethoay-3H-phenothiazin-3-one] | 48.0* % | 38.8*** % |  |  |  |
| OCc1ccccc1C=CCc1cc2c(cc1O)CCO2 [IV, 2,3-dihydro-6-(3-(2-hydroxymethyl)phenyl-2-propenyl)-5-benzofuranol] |  | 28.8** % |  |  | 59.5* % |
